Reference: US8865913B2, “Crystalline forms and processes for their preparation” (BIAL-Portela & C.A., S.A, priority 2010, dated 2014)

Tests used:
Format in all cases: physicochemical
[1] = Correlated thermogravimetric-infrared analysis (TG-IR); details: sample no. 79
Description: 5. Correlated Thermogravimetric—Infrared Analysis (TG-IR)
Thermogravimetric infrared (TG-IR) analysis was performed on a TA Instruments thermogravimetric (TG) analyzer model 2050 interfaced to a Magna-IR 560® Fourier transform infrared (FT-IR) spectrophotometer (Thermo Nicolet) equipped with an Ever-Glo mid/far IR source, a potassium bromide (KBr) beamsplitter, and a mercury cadmium telluride (MCT-A) detector. The FT-IR wavelength verification was performed using polystyrene, and the TG calibration standards were nickel and Alumel™. The sample was placed in a platinum sample pan, and the pan was inserted into the TG furnace. The TG instrument was started first, immediately followed by the FT-IR instrument. The TG instrument was operated under a flow of helium at 90 and 10 cc/min. for the purge and balance, respectively. The furnace was heated under […] at a rate of 20° C./minute to a final temperature of 250° C. IR spectra were collected approximately every 32 seconds for approximately 13 minutes. Each IR spectrum represents 32 co-added scans collected at a spectral resolution of 4 cm^−1. Volatiles were identified from a search of the High Resolution Nicolet Vapor Phase spectral library.

[2] = Thermogravimetric analysis (TGA); details: sample no. 79
Description: 4. Thermogravimetric Analysis (TGA)
TG analyses were performed using a TA Instruments 2950 and Q5000 thermogravimetric analyzer. Temperature calibration was performed using nickel and Alumel™. Each sample was placed in an aluminum pan and inserted into the TG furnace. The furnace was heated under a nitrogen purge.
The method code for the thermogram (shown by the list of Figures in the “Brief Description of the Figures” section above) is an abbreviation for the start and end temperature as well as the heating rate; e.g., 25-350-10 means “from 25° C. to 350° C., at 10° C./min”.

[3] = X-ray powder diffraction (XRPD)
Description: 3. X-ray Powder Diffraction (XRPD)
Selected XRPD patterns were collected with an Inel XRG-3000 diffractometer. An incident beam of Cu Kα radiation was produced using a fine-focus tube and a parabolically graded multilayer mirror. Prior to the analysis, a silicon standard (NIST SRM 640c) was analyzed to verify the Si 111 peak position. A specimen of the sample was packed into a thin-walled glass capillary, and a beam-stop was used to minimize the background from air. Diffraction patterns were collected in transmission geometry using Windif v. 6.6 software and a curved position-sensitive Equinox detector with a […] of 120°.
Selected XRPD patterns were collected using a Bruker D8 DISCOVER diffractometer and Bruker's General Area-Detector Diffraction System (GADDS, v. 4.1.20). An incident microbeam of Cu Kα radiation was produced using a long, fine-focus tube (40 kV, 40 mA), a parabolically graded multilayer mirror, and a 0.5 mm double-pinhole collimator. Prior to the analysis, a silicon standard (NIST SRM 640c) was analyzed to verify the Si 111 peak position. […]
XRPD patterns for microplate samples were collected using a Bruker D8 DISCOVER diffractometer and Bruker's General Area-Detector Diffraction System (GADDS, v. 4.1.20). […] Prior to the analysis, a silicon standard (NIST SRM 640c) was analyzed to verify the Si 111 peak position. […]

TGA sharp weight loss (onset) [2]: Sharp weight loss at ~254 °C (onset)
Compound: Fc1cc(F)c2c(c1)C[C@@H](n1c(CCNCc3ccccc3)c[nH]c1=S)CO2 [Form B, 1-[(3R)-6,8-difluoro-3,4-dihydro-2H-1-benzopyran-3-yl]-1,3-dihydro-5-[2-[(phenylmethyl)amino]ethyl]-2H-imidazole-2-thione]
TG-IR (IR) identification of volatile [1]: (IR): Consistent with loss of ethyl acetate.
TGA weight loss ([2]; between ~138° C. and ~190° C.): ~4.7 wt % loss between ~138 °C and ~190 °C
XRPD result ([3]; sample no. 48 (crystallized from tetrahydrofuran/ethyl acetate)): Crystalline consistent with Form B of compound 2
XRPD result ([3]; sample no. 79 (organic vapor stress of amorphous material in ethyl acetate)): Crystalline consistent with Form B of compound 2
